# In paper PMC7942396, “Drug Repurposing Screen for Compounds Inhibiting the Cytopathic Effect of SARS-CoV-2” (Frontiers in Pharmacology, 2021):
# Structures can show the parent of a compound that is named as a salt. Where two headings read alike, the source gives them in different places. Where a SMILES comes first, the peptide text is derived from it. [ ]: non-standard residue; d: D form. Nle = CCCC[C@H](N)C(=O)O
# Experiments:
# [1] = tested on: SARS-CoV-2 (USA_WA1/2020); experiment: microbe, parasite or virus in culture; type: cell-based; conditions: for EC50: read-out: CPE EC50
# Vero E6 cells = Vero E6 cells without virus; for CC50: read-out: Cytotox CC50
# [2] = SARS-CoV-2 CPE assay, Vero E6 cells, confirmed anti-SARS-CoV-2 compounds
# [3] = SARS-CoV-2 CPE assay, Vero E6 cells, efficacy
# [4] = SARS-CoV-2 CPE assay, Vero E6 cells
# [5] = […], DMSO 0%, no-virus control 100%, hit confirmation
Molecule,"EC50 [1, 2]","CPE % Efficacy [1, 3]",% Cytotox (Vero E6 cells; cytotoxicity counter-assay),CC50 (Vero E6 cells; cytotoxicity counter-assay),further results
C[C@@H]1O[C@@H](O[C@H]2[C@H](OC(=O)[C@]34CCC(C)(C)C[C@H]3C3=CCC5[C@@]6(C)CC[C@H](O[C@@H]7O[C@H](CO[C@@H]8OC[C@H](O)[C@H](O)[C@H]8O)[C@@H](O)[C@H](O)[C@H]7O)C(C)(C)C6CC[C@@]5(C)[C@]3(C)C[C@H]4O)OC[C@@H](O)[C@@H]2O)[C@H](O)[C@H](O)[C@H]1O[C@@H]1OC[C@H](O)[C@H](O[C@@H]2OC[C@@H](O)[C@H](O)[C@H]2O)[C@H]1O (some centres unmarked) [NCGC00384864],0.6 µM,46.4%,58.6%,1.91 µM,–
CC(C)c1cnn2c(NCc3ccccc3)cc(NCCCCCCN)nc12 [BS-181],10 µM,83.4%,32.0%,–,–
Cc1c(C(=O)Nc2cccc(C(F)(F)F)c2)cc(-c2ccccc2)n1CCCN1CCOCC1 [HC-067047],10 µM,64.2%,45.7%,–,–
COc1cc2nc(N3CCC(N4CCCCC4)CC3)nc(NC3CCCCCC3)c2cc1OC.Cl.Cl [C 021 dihydrochloride],3.55 µM,79.7%,108.9%,7.08 µM,–
CCC(C)CNCC(=O)N1CCc2sccc2C1COc1cccc(C)c1 (centres unmarked) [RU-SKI 43],–,–,21.3%,–,"CPE % Efficacy [1, 4]: 72.7%; EC50 [1, 4]: 14.1 µM"
"O=C(NCc1ccccc1)[C@H](Cc1ccccc1)NC(=O)[C@H]1O[C@@H]1C(=O)NCCc1ccc(O)cc1 [CAA-0225, reference compound]",–,–,–,–,"CPE % Efficacy [1, 5]: 99.3%; EC50 [1]: 0.2 µM; % Cytotox (Vero E6 cells; 72 h): <30%"
Cc1cc(CN)cc(C)c1NC(=O)c1ccc(-c2cc(Cl)ccc2Cl)o1 [CYM50358],4.47 µM,34.9%,52.7%,–,–
"Cc1nnc(-c2ccc(-c3ccc(C(=O)Nc4ccc(O)c(N5CCN(C)CC5)c4)cc3)c(C)c2)o1 [GMC 2-113, reference compound]",–,–,–,–,"CPE % Efficacy [1, 5]: 129.7%; EC50 [1]: 10 µM; % Cytotox (Vero E6 cells; 72 h): <30%"
"C/C1=C/CCC2=CC(OC2=O)C(C)(C)/C=C\C1=O (centres unmarked) [Asteriscunolide D, reference compound]",–,–,–,–,"CPE % Efficacy [1, 5]: 93.3%; EC50 [1]: 10 µM; % Cytotox (Vero E6 cells; 72 h): <30%"
COc1ccc2c(c1)c(CCN(C)C)cn2S(=O)(=O)c1ccccc1.O=C(O)C(=O)O [MS 245 oxalate],–,–,20.5%,12.6 µM,"CPE % Efficacy [1, 4]: 76.1%; EC50 [1, 4]: 12.6 µM"
"Cl.Fc1ccc2c(CCNCc3cccc(OCC(F)(F)C(F)F)c3)c[nH]c2c1 [Lu AE58054 hydrochloride, reference compound]",–,–,–,–,"CPE % Efficacy [1, 5]: 97.2%; EC50 [1]: 10 µM; % Cytotox (Vero E6 cells; 72 h): <30%"
C/C=C(\C)C(=O)OC1C(C)C2(O)C3C=C(C)C(=O)C3CC(CO)=CC2C2C(C)(C)C12OC(C)=O (centres unmarked) [NCGC00380717],0.78 µM,67.0%,9.9%,0.35 µM,–
"COc1ccc(CN2CCN(CCCSc3cc(C(C)(C)C)c(O)c(C(C)(C)C)c3)CC2)c(OC)c1OC [S-15176 difumarate salt, reference compound]",–,–,–,–,"CPE % Efficacy [1, 5]: 127.4%; EC50 [1]: 3.8 µM; % Cytotox (Vero E6 cells; 72 h): <30%"
COc1cccc([C@@H](C)NCCCc2ccccc2Cl)c1 [NPS-R568],11.2 µM,78.0%,15.8%,12.6 µM,–
C/C=C(\C)C(=O)O[C@H]1C=C(CO)C(=O)[C@H](OC(C)=O)[C@H]1C(C)C [NCGC00180769],3.55 µM,30.1%,103.1%,10 µM,–
Nc1ncnc2c1c(-c1cccc(OCc3ccccc3)c1)cn2C1CC(CN2CCCC2)C1 (centres unmarked) [ADW-742],7.94 µM,55.7%,106.8%,12.6 µM,–
"CCCC[C@@H](C=O)NC(=O)[C@H](CC(C)C)NC(=O)[C@H](CC(C)C)NC(C)=O [Calpain Inhibitor I, ALLN, reference compound] (Ac-Leu-Leu-[Nle]-aldehyde)",0.0226 µM,72.0%,115.5%,1.13 µM,"CPE % Efficacy [1, 5]: 111.1%; EC50 [1]: 2 µM; % Cytotox (Vero E6 cells; 72 h): <30%"

Molecule,"EC50 [1, 2]","CPE % Efficacy [1, 3]",% Cytotox (Vero E6 cells; cytotoxicity counter-assay),CC50 (Vero E6 cells; cytotoxicity counter-assay),further results
"N#Cc1c(C2CCNCC2)cc(-c2c(O)cccc2OCC2CC2)nc1N [IKK-2 inhibitor VIII, reference compound]",–,–,–,–,"CPE % Efficacy [1, 5]: 91.7%; EC50 [1]: 7.1 µM; % Cytotox (Vero E6 cells; 72 h): <30%"
Cl.Cl.Fc1ccc(-c2nc(C3CCNCC3)sc2-c2ccnc(NC3CC3)n2)cc1 [DBM 1285 dihydrochloride],–,–,61.3%,11.2 µM,"CPE % Efficacy [1, 4]: 56.1%; EC50 [1, 4]: 12.6 µM"
COc1cc2nc(N3CCCCC3)nc(NC3CCN(Cc4ccccc4)CC3)c2cc1OC [NCGC00185849],3.98 µM,66.6%,110.3%,10 µM,–
COc1cc(-c2cc(-c3ccc(N4CCNCC4)cc3)cnc2C)cc(OC)c1OC [LDN-214117],–,–,53.6%,11.2 µM,"CPE % Efficacy [1, 4]: 39.2%; EC50 [1, 4]: 11.2 µM"
"Cn1nc(C(C)(C)C)cc1C(=O)N[C@@H](Cc1cccc(Cl)c1)C(=O)NCC#N [Cathepsin Inhibitor 1, reference compound]",–,–,–,–,"CPE % Efficacy [1, 5]: 114.4%; EC50 [1]: 0.25 µM; % Cytotox (Vero E6 cells; 72 h): <30%"
10058-F4,–,–,34.2%,–,"CPE % Efficacy [1, 4]: 62.2%; EC50 [1, 4]: 12.6 µM"
Cc1nc(Nc2cnn(C3CCNCC3)c2)nc2c1N(C)C(=O)c1cc3ccccc3cc1N2C [HTH-01-015],11.2 µM,95.2%,40.5%,12.6 µM,–
Cc1ncc(NC(=O)c2cccc(C(F)(F)F)c2)cc1-c1cnc(OC2CCOCC2)c(N2CCOCC2)c1 [RAF-709],–,–,56.6%,8.91 µM,"CPE % Efficacy [1, 4]: 58.4%; EC50 [1, 4]: 14.1 µM"
CC(C)C[C@H]1C(=O)O[C@H](Cc2ccc(N3CCOCC3)cc2)C(=O)N(C)[C@@H](CC(C)C)C(=O)O[C@H](C)C(=O)N(C)[C@@H](CC(C)C)C(=O)O[C@H](Cc2ccc(N3CCOCC3)cc2)C(=O)N(C)[C@@H](CC(C)C)C(=O)O[C@H](C)C(=O)N1C [Emodepside],6.31 µM,74.5%,32.2%,8.91 µM,–
Cn1ncc2cc(-c3cnc(N)c(Cl)c3N3CCC4(CCNC4=O)CC3)ccc21 [CCT-251921],2.82 µM,87.9%,39.8%,–,–
COc1cc2nc(N3CCCCC3)nc(NC3CCN(C)CC3)c2cc1OC [NCGC00185859],3.55 µM,94.8%,69.3%,10 µM,–
"Cc1cccc(Nc2nc(-c3ccncc3)cs2)c1 [STF-62247, reference compound]",–,–,–,–,"Shape of concentration-response in the CPE assay ([1]; Figure 3): bell-shaped concentration-responses due to cytotoxicity; CPE % Efficacy [1, 5]: 107.1%; EC50 [1]: 1.1 µM; CC50 (Vero E6 cells; 72 h): 11.2 µM"
"CC(CN(C)C)CN1c2ccccc2Sc2ccc(C(F)(F)F)cc21 (centres unmarked) [Trifluomeprazine 2-butenedioate, reference compound]",–,–,–,–,"CPE % Efficacy [1, 5]: 90.2%; EC50 [1]: 10 µM; % Cytotox (Vero E6 cells; 72 h): <30%"
Cc1c(NC(=O)OC[C@@H]2COCCN2)cn2ncnc(Nc3ccc4c(cnn4Cc4cccc(F)c4)c3)c12 [AC480 (BMS-599626)],11.2 µM,62.3%,67.2%,12.6 µM,–
O=C(c1ccc(Nc2nccc(-c3cc4ccccc4s3)n2)cc1)N1CCC(N2CCCC2)CC1 [IKK-16],3.55 µM,110.2%,107.2%,10 µM,–
CO/C1=C\C(C)=C\[C@@H](C)[C@@H](O)[C@@H](C)C/C(C)=C/C=C/[C@H](OC)[C@@H]([C@@H](C)[C@@H](O)[C@H](C)[C@@]2(O)C[C@@H](O)[C@H](C)[C@@H](C(C)C)O2)OC1=O [Bafilomycin A1 from Streptomyces griseus],0.0113 µM,69.3%,58.6%,0.1 µM,–
O=C(CCn1cnc2onc(-c3ccc(F)cc3)c2c1=O)Nc1cccc(C(F)(F)F)c1 [NCGC00126519],11.2 µM,64.8%,65.0%,10 µM,–
